Results from EP4741389A1, “KAT6 INHIBITOR” (Shanghai Qilu Pharmaceutical Research and Development …, priority 2023, dated 2025).

Assays:
[1] = Body weight changes and tolerability in the ZR-75-1 xenograft study; type: in vivo, Mouse; details: result in words; for body weight changes: differences among the groups, FIG. 1; for tolerability in tumor-bearing mice: human breast cancer ZR-75-1 model
Protocol: • Species: Mouse; • Strain: BALB/c nude mice; • Age and weight: 6-8 weeks old, weighing 19-26 grams; • Gender: Female; • Supplier: GemPharmatech Co., Ltd.; • Compound source: Compound A: [drawing 190] prepared with reference to patent CN114364672A.
A mixture containing 10×10^6 ZR-75-1 cells in 100 µL PBS and 100 µL Matrigel (final volume was 200 µL) was subcutaneously implanted into the right dorsal side (upper side) of each mouse. On day 18 after cell implantation, when the average tumor volume reached 138 mm^3, grouping and administration were initiated. Mice with tumor volumes ranging from 100 to 212 mm^3 were selected for the study. Mice were randomly assigned to groups based on body weight and tumor volume, with 7 mice per group. The day of grouping was designated as PG-D0, and administration for all groups started from PG-D0.
The effects of the test drugs Compound 2, Compound 5-P2, Compound 3, and Compound A on the body weight of the female BALB/c nude mouse model with subcutaneously implanted human breast cancer ZR-75-1 cell xenografts are shown in FIG. 1.

[2] = system: ZR-75-1 cells; test: ZR-75-1 cell proliferation assay (CellTiter-Glo); type: cell-based; details: Homo sapiens, ZR-75-1, 240 h, total culture period of 10 days, read-out: ZR-75-1 Proliferation Inhibition IC50
Procedure, shortened: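 ZR-75-1 cells were exposed to compound for 10 days in total at 37°C and 5% CO2, being trypsinized, counted and re-seeded every 5 days, with fresh compound added after each re-seeding. Viability was read by CellTiter-Glo luminescence, and IC50 was derived from a four-parameter logistic fit.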

[3] = target: T1, KAT6A (Homo sapiens, UniProt Q92794); test: KATs acetyltransferase enzyme activity assay (TR-FRET), KAT6A; type: biochemical; details: Biotin-H3 (1-21) and AcCOA, 90 minutes at room temperature
T1 construct: purchased Active Motif 81223

[4] = system: ZR-75-1 H3K23 Acetylation; test: Histone H3 acetylation assay (H3K23 acetylation in ZR-75-1 cells); type: cell-based; details: Homo sapiens, 72 hours incubation, Odyssey CLx fluorescence, read-out: ZR-75-1 H3K23 Acetylation Inhibition IC50
Procedure, shortened: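 ZR-75-1 cells exposed to serially diluted compounds for 72 h at 37°C, then fixed with 4 w/v% paraformaldehyde, methanol-permeabilized and immunostained for acetyl-H3K23 and total histone H4. Fluorescent secondary antibody signals quantified by imaging; IC50 from four-parameter logistic nonlinear regression.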

[5] = target: T2, KAT6B (Homo sapiens, UniProt Q8WYB5); test: KATs acetyltransferase enzyme activity assay (TR-FRET), KAT6B; type: biochemical; details: Biotin-H3 (1-21) and AcCOA, 90 minutes at room temperature
T2 construct: purchased Active Motif 81224
Procedure, shortened: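 TR-FRET assay in Tris-HCl buffer: enzyme preincubated with compound 15 min at room temperature, then biotin-H3(1-21) peptide and acetyl-CoA added for 90 min at room temperature. Acetylation detected with Eu-anti-acetyl-histone H4 lysine antibody and ULight-streptavidin (60 min), 665/620 nm ratio; IC50 from four-parameter logistic fit.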

T1 sequence (Q92794 488-778 limits assumed): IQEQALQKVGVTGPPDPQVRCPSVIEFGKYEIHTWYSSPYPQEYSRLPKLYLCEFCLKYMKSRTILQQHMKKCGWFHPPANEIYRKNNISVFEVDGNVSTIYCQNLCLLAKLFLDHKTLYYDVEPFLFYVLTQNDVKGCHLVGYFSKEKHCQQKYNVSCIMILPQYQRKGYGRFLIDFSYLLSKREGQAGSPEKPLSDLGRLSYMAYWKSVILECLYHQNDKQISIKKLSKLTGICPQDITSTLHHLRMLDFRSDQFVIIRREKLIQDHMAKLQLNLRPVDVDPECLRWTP
T2 sequence (Q8WYB5 whole entry): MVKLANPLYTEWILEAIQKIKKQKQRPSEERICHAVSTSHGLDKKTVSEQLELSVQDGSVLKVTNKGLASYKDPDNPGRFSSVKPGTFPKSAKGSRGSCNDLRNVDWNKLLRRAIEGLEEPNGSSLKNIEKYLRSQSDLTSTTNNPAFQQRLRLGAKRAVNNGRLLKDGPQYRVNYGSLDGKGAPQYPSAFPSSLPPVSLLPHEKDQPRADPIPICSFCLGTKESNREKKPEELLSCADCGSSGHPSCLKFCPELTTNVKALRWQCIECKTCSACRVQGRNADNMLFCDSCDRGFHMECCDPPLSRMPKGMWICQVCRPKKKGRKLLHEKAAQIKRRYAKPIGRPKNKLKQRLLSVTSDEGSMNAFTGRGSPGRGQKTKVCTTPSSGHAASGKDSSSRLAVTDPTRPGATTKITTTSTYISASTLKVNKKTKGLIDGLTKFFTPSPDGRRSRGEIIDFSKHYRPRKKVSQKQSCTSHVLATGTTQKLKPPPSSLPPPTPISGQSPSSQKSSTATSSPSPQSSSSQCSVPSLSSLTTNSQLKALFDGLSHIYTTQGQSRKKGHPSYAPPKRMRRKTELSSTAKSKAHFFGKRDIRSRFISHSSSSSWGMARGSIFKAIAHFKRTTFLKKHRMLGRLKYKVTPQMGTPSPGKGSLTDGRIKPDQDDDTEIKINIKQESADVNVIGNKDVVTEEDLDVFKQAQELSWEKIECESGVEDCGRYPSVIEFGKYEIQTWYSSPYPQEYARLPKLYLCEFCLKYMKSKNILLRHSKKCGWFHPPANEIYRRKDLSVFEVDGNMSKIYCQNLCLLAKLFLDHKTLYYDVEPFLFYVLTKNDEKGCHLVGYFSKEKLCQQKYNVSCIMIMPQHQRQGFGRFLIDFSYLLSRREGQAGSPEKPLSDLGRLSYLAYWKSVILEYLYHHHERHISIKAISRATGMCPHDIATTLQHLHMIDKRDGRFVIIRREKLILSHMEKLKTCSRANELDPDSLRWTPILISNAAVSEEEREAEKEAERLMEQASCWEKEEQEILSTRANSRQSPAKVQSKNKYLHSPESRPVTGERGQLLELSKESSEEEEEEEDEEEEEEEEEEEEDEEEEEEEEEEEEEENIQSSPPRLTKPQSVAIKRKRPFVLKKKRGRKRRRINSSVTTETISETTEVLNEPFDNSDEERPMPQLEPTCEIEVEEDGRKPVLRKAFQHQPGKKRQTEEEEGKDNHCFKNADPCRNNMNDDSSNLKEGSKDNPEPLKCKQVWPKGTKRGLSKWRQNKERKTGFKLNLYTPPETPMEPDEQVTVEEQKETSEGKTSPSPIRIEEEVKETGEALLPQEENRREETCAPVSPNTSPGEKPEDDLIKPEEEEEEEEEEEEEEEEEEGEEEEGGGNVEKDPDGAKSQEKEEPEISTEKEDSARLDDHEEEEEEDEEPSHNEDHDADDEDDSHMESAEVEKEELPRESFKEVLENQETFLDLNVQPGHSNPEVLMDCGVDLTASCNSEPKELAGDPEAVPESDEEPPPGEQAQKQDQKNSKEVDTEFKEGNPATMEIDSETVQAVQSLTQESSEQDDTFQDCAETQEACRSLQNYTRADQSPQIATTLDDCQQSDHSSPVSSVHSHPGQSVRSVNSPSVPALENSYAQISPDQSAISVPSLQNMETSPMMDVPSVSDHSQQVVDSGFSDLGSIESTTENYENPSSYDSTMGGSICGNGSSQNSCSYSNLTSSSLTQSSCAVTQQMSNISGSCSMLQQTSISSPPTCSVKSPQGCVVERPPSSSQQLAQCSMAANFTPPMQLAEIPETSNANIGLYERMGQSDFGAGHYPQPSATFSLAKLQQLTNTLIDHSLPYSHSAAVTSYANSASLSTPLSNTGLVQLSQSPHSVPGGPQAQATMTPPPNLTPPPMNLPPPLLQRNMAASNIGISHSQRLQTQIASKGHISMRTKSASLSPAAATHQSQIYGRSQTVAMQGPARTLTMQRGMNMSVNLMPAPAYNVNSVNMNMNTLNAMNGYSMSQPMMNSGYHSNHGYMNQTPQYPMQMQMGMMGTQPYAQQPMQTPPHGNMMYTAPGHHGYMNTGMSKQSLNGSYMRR

SMILES | body weight changes [1] | tolerability in tumor-bearing mice [1] | IC50 [2] [nM] | IC50 [3] [nM] | IC50 [4] [nM] | IC50 [5] [nM]
COc1ccc2c(c1S(=O)(=O)Nc1noc3cc(Cn4cccn4)cc(OC)c13)OC[C@@H]1C[C@H]21 [Compound 5-P2, (1aR,7bS)-N-(6-((1H-Pyrazol-1-yl)methyl)-4-methoxybenzo[d]isoxazol-3-yl)-5-methoxy-1,1a,2,7b-tetrahydrocyclopropa[c]chromene-4-sulfonamide] | not significant | tolerated | 0.1 | 1.1 | 0.5 | 1.6
COc1ccc2c(c1S(=O)(=O)Nc1noc3cc(Cn4cccn4)cc(OC)c13)OCCCO2 [Compound 2, N-(6-((1H-Pyrazol-1-yl)methyl)-4-methoxybenzo[d]isoxazol-3-yl)-7-methoxy-3,4-dihyd ro-2H-benzo[b][1,4]dioxepine-6-sulfonamide] | not significant | tolerated | 3.2 | 3.2 | 5.1 | 25.2
